Experimental data taken from ChEMBL document CHEMBL1201862, “PubChem BioAssay data set” (2004).
Calls of active or inactive are those of the source.

Columns and labels:
[1] = HepG2 cell cytotoxicity, dose response, cytotoxicity control for Shn3 inhibitor project, CellTiter-Glo, cherry-picked (AID 624134); format: functional, cell-based
BJ [2] = experiment: cytotoxicity toward BJ-TERT fibroblasts, dose response, cell-based, RAS-independent, luminescence (AID 1933); format: functional; conditions: Homo sapiens
INS1 = experiment: beta cell apoptosis inhibitors, cytokine rescue, dose response, luminescence, retest (AID 449756); format: functional, cell-based; conditions: Rattus norvegicus;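 further: cell death triggered by IL-1 beta plus TNF-alpha plus IFN-gamma mixture; protective hits raise ATP signal compared with cytokine alone wells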
[3] = cytotoxicity toward NIH3T3 fibroblasts, dose response, counter-screen, cell-based, ATP luminescence, mouse fibroblasts (AID 2010); format: functional;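 further: cells exposed to compound for about 90 hours before reading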
[4] = inhibitors of SNCA 5'UTR-driven reporter translation, confirmation, H4 neuroglioma cells, luminescence (AID 1988); format: functional, cell-based
[5] = target: Sphingosine 1-phosphate receptor 4 (Homo sapiens, UniProt O95977); experiment: Fluorescence dose response cell-based high throughput screening assay for antagonists of the Sphingosine 1-Phosphate Receptor 4 (S1P4). [Related pubchem assays: 1524 (Confirmation in triplicates.), 1510 (Primary screen.)]; format: functional
Sphingosine 1-phosphate receptor 4, sequence (O95977 whole entry): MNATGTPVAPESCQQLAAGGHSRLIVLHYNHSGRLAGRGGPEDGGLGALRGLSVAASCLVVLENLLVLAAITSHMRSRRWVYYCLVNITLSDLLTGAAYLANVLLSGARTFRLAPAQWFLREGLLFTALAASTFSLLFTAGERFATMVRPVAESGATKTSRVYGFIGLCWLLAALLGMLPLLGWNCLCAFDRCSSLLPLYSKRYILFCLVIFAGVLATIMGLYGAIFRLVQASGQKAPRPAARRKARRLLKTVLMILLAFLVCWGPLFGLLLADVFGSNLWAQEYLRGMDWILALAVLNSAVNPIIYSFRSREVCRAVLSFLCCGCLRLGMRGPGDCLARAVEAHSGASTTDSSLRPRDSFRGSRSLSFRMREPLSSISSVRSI

BJ [6] = experiment: cytotoxicity toward BJ-TERT-LT-ST fibroblasts, dose response, cell-based, RAS-independent, luminescence (AID 1935); format: functional; conditions: Homo sapiens;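 further: BJ fibroblasts immortalized with TERT plus LT and ST oncogenes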
[7] = control 3'UTR Renilla luciferase suppression, dose response, counter-screen for Shn3 inhibitor project, cell-based, Clone20-Shn3RL, cherry-picked (AID 624133); format: functional
[8] = cytotoxicity toward DRD oncogenic fibroblasts, dose response, cell-based, non-viral oncogenic, luminescence (AID 1934); format: functional; conditions: Homo sapiens
[9] = inhibitors of firefly luciferase expression or activity, dose response, H4 neuroglioma cells, luminescence (AID 1990); format: functional, cell-based
[10] = Shn3 3'UTR reporter inhibitors, dose response, cell-based, Clone20 osteoblasts, firefly luciferase, cherry-picked (AID 624132); format: functional;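 further: firefly luciferase luminescence from reporter carrying the Shn3 3'UTR in osteoblasts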
[11] = Luminescence Cell-Based Dose Response HTS to Identify Inhibitors of 5'UTR Stem-Loop Driven Prion Protein mRNA Translation in H4 Neuroglioblastoma Cells. [Related pubchem assays: 1827 (Project Summary), 1813 (Primary HTS)]; format: functional
[12] = target: G-protein coupled receptor 35 (Homo sapiens, UniProt Q9HC97); experiment: GPR35 antagonists blocking zaprinast-driven arrestin recruitment, primary screen, imaging, U2OS, beta-arrestin-GFP, zaprinast agonist (AID 2058); format: functional;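 further: antagonist potency meaning inhibition of agonist-induced arrestin redistribution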
G-protein coupled receptor 35, sequence (Q9HC97 whole entry): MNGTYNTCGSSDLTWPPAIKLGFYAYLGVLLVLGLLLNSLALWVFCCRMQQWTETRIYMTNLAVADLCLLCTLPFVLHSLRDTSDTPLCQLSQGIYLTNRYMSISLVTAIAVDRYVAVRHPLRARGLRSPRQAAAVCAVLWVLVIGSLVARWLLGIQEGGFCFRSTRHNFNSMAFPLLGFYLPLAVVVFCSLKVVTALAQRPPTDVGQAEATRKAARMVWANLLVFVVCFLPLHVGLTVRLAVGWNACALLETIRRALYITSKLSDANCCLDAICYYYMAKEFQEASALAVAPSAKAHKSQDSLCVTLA

[13] = target: T1, High affinity choline transporter 1 (Homo sapiens, UniProt Q9GZV3); experiment: CHT inhibitors, dose response, cell-based, 10-point CRC, membrane potential dye (AID 588401); format: functional;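 further: membrane potential dye fluorescence of choline-evoked depolarization via CHT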
T1 sequence (Q9GZV3 whole entry): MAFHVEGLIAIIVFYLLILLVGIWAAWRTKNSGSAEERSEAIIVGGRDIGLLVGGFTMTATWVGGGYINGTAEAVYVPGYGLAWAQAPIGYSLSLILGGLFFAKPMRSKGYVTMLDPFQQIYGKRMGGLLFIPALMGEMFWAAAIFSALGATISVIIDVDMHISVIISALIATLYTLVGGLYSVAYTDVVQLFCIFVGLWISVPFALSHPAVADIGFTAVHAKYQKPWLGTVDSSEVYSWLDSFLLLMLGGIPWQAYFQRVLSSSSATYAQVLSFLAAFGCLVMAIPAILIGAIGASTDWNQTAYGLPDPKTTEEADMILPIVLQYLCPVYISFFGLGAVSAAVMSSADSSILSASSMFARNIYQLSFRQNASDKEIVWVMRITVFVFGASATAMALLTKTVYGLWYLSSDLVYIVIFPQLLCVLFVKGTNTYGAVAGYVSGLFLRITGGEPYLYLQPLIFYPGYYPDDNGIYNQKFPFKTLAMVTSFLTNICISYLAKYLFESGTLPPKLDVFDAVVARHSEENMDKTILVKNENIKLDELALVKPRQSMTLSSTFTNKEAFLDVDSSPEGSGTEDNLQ

A-375 = experiment: A375 melanoma cell viability reduction, dose response, counter-screen for MITF modulator project, cherry-pick samples, set 2 (AID 540335); format: functional, cell-based; conditions: Homo sapiens
[14] = target: T2, Microphthalmia-associated transcription factor (Homo sapiens, UniProt O75030); experiment: TRPM1 promoter luciferase signal decrease, dose response, MITF inhibitor project, cell-based, SK-MEL-5, cherry-picked, set 3 (AID 493073); format: functional
T2 sequence (O75030 whole entry): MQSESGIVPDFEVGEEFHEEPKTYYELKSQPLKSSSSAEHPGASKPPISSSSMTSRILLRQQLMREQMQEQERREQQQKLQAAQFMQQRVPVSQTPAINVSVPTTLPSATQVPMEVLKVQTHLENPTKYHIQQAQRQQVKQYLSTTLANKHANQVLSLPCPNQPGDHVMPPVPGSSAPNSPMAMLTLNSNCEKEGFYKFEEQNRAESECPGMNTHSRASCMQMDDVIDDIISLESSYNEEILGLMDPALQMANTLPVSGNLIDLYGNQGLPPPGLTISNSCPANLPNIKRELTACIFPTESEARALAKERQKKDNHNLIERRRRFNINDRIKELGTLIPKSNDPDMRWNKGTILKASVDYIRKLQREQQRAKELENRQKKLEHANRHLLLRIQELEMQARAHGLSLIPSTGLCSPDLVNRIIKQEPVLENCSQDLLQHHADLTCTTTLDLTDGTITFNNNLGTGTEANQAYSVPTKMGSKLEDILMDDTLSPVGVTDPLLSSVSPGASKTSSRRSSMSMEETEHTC

BJ [15] = experiment: cells; format: functional, cell-based; conditions: Homo sapiens
[16] = inhibitors of intracellular T. cruzi replication, confirmation, NIH3T3 host cells, beta-gal luminescence (AID 2044); format: functional, cell-based;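 further: intracellular parasites grown in NIH/3T3 mouse fibroblasts as host cells; luminescent beta-galactosidase reporter signal from transgenic T. cruzi replicating inside host cells; inhibitors lower the luminescence signal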
[17] = target: G-protein coupled receptor 55 (Homo sapiens, UniProt Q9Y2T6); experiment: GPR55 agonists via beta-arrestin recruitment, primary screen, imaging, U2OS cells, beta-arrestin-GFP redistribution (AID 1961); format: functional
G-protein coupled receptor 55, sequence (Q9Y2T6 whole entry): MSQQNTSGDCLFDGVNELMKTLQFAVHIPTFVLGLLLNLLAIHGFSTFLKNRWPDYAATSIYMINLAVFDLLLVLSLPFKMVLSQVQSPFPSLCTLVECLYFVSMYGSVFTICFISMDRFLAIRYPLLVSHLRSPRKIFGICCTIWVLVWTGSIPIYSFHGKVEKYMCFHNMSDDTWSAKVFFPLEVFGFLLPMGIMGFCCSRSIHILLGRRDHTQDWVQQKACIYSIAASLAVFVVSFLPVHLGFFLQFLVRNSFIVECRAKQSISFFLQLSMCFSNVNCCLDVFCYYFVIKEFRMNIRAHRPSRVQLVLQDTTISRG

[18] = target: T1, High affinity choline transporter 1; experiment: CHT inhibitors, dose response, cell-based, 5-point CRC, membrane potential dye (AID 504840); format: functional
[19] = target: Sphingosine 1-phosphate receptor 1 (Homo sapiens, UniProt P21453); format: functional;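 further: Tango beta-arrestin reporter U2OS cells stimulated with S1P near its EC80; inhibitor potency meaning antagonism of receptor activation by the natural agonist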
Sphingosine 1-phosphate receptor 1, sequence (P21453 whole entry): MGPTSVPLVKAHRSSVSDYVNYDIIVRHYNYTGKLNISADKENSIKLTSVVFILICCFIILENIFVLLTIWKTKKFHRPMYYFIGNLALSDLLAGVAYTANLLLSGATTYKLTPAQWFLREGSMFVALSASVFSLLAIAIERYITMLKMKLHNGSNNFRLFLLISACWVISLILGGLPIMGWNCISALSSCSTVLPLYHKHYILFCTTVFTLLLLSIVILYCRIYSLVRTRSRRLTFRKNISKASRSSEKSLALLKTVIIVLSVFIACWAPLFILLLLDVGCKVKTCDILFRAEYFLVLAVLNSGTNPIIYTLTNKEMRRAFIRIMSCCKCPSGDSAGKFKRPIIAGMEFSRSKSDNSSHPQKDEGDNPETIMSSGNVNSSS

[20] = target: Melanin-concentrating hormone receptor 1 (Homo sapiens, UniProt Q99705); experiment: Late-stage fluorescence-based counterscreen for antagonists of the G-protein coupled receptor 7 (GPR7): cell-based dose response assay to identify antagonists of the melanin-concentrating hormone receptor 1 (MCHR1) Set 6.; format: functional
Melanin-concentrating hormone receptor 1, sequence (Q99705 whole entry): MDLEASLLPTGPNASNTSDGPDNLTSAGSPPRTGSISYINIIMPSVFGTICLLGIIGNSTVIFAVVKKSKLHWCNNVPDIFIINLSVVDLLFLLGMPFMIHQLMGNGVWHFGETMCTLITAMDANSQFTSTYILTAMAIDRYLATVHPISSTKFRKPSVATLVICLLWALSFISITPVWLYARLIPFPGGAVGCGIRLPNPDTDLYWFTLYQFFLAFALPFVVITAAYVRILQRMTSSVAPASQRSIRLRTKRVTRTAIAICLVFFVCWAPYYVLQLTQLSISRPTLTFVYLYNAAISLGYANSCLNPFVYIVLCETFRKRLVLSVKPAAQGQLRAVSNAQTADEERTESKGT

[21] = target: Neuropeptides B/W receptor type 1 (Homo sapiens, UniProt P48145); experiment: GPR7 antagonist potency, late-stage follow-up, cell-based, fluorescence, dose response, set 6 (AID 588583); format: functional
Neuropeptides B/W receptor type 1, sequence (P48145 whole entry): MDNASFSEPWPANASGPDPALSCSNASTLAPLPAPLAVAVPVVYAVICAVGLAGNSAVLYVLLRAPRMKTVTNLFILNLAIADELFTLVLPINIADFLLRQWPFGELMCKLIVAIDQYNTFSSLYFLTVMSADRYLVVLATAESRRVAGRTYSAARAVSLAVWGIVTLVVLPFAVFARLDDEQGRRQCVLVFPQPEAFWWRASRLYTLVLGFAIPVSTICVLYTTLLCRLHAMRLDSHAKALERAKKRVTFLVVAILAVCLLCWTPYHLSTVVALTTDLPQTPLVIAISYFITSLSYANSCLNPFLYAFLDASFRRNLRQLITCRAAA

## CC1=CC2/C=C(\C)CCC(O)C(O)/C=C/C(=O)C23C(=O)NC(CC(C)C)C3C1C (stereo not drawn)
[1]
  AC50: 8.15 µM (active)
BJ [2]
  EC50: 4.94 µM (active)
INS1
  AC50: 6.6 µM (active)
[3]
  EC50: 4.73 µM (active)
[4]
  EC50: 9.67 µM (active)
[5]
  IC50: 0.648 µM (active)
BJ [6]
  EC50: 4.8 µM (inconclusive)
[7]
  AC50: 6.91 µM (active)
[8]
  EC50: 4.94 µM (inconclusive)
[9]
  EC50: > 120 µM (not active)
[10]
  AC50: 5.29 µM (active)
[11]
  EC50: 8.86 µM (active)
[12]
  IC50: 3.06 µM (active)
[13]
  IC50: 3.16 µM (active)
A-375
  AC50: 10.4 µM (active)
[14]
  AC50: 6.58 µM (active)
BJ [15]
  EC50: 6.51 µM (active)
[16]
  EC50: 4.09 µM (active)
[17]
  EC50: > 32 µM (inactive)
[18]
  IC50: 4.38 µM (active)
[19]
  IC50: 17.6 µM (not active)

## N#CC(Cc1ccccc1)c1c(Cl)cnn(Cc2cccc3ccccc23)c1=O (stereo not drawn)
[20]
  IC50: ~2.06 µM (active)
[21]
  IC50: ~2.06 µM (active)
